Source: the supplement of paper PMC10307832

What was measured:
Experiment in all cases: relative viability (nuclei count vs DMSO), 5 days (fraction); higher = more cells survive
NCI-H1623 = system: NCI-H1623
Procedure, shortened: (§1)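 Lung cancer cell lines in 1536-well plates were dosed by pin tool the day after seeding, either with one drug alone or with a fixed anchor-drug dose plus five library-drug doses (not always all listed) in √10 steps. After 5 days, cells were fixed and their nuclei stained in one step (final 0.05% Triton X-100, 1% formaldehyde, 1 ug/ml Hoechst), then counted on 4× images. Relative viability is the nuclei count in treated wells divided by that in vehicle wells. Values are medians of duplicate plates.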

NCI-H1299 = system: NCI-H1299
Procedure, shortened: as §1

A549 = system: A549
Procedure, shortened: as §1

IA-LM = system: IA-LM
Procedure, shortened: as §1

EBC-1 = system: EBC-1
Procedure, shortened: as §1

Calu-6 = system: Calu-6
Procedure, shortened: as §1

SMILES	relative viability (NCI-H1623; first compound 0.08 µM)	relative viability (NCI-H1623; first compound 0.8 µM)	relative viability (NCI-H1623; first compound 2.53 µM)	relative viability (NCI-H1623; first compound 8 µM)	relative viability (NCI-H1299; first compound 0.08 µM)	relative viability (NCI-H1299; first compound 0.8 µM)	relative viability (NCI-H1299; first compound 2.53 µM)	relative viability (NCI-H1299; first compound 8 µM)	relative viability (A549; first compound 0.08 µM)	relative viability (A549; first compound 0.8 µM)	relative viability (A549; first compound 2.53 µM)	relative viability (A549; first compound 8 µM)	relative viability (IA-LM; first compound 0.08 µM)	relative viability (IA-LM; first compound 0.8 µM)	relative viability (IA-LM; first compound 2.53 µM)	relative viability (IA-LM; first compound 8 µM)	relative viability (EBC-1; first compound 0.08 µM)	relative viability (EBC-1; first compound 0.8 µM)	relative viability (EBC-1; first compound 2.53 µM)	relative viability (EBC-1; first compound 8 µM)	relative viability (Calu-6; first compound 0.08 µM)	relative viability (Calu-6; first compound 0.8 µM)	relative viability (Calu-6; first compound 2.53 µM)	relative viability (Calu-6; first compound 8 µM)
CCCCCCCCCCCC1=C(O)C(=O)C=C(O)C1=O [Embelin] + COc1cc2c(Oc3ccc(NC(=O)C4(C(=O)Nc5ccc(F)cc5)CC4)cc3F)ccnc2cc1OCCCN1CCOCC1 [Foretinib] (partner 0.25 µM)	0.889	0.872	0.876	0.853	1.08	1.11	1.14	1.13	0.906	1.05	1.09	1.04	1.05	1.17	1.16	1.16	0.0948	0.124	0.102	0.103	0.86	1.01	0.883	1.03
CCCCCCCCCCCC1=C(O)C(=O)C=C(O)C1=O [Embelin] + CC1(C)CCC(c2ccc(Cl)cc2)=C(CN2CCN(c3ccc(C(=O)NS(=O)(=O)c4ccc(N[C@H](CCN5CCOCC5)CSc5ccccc5)c(S(=O)(=O)C(F)(F)F)c4)cc3)CC2)C1 [Navitoclax] (partner 0.5 µM)					1.09	1.1	1.09	1.02	1.21	1.35	1.21	1.3	1.03	0.87	0.92	0.305	0.439	0.426	0.425	0.404	0.837	1.01	0.904	0.831
CCCCCCCCCCCC1=C(O)C(=O)C=C(O)C1=O [Embelin] + CC(C)C[C@H](NC(=O)[C@H](Cc1ccccc1)NC(=O)c1cnccn1)B(O)O [Bortezomib] (partner 0.002 µM)					1.06	1.05	1.07	1.03					0.769	0.904	0.913	0.381	0.485	0.678	0.565	0.545	1.1	1.03	0.966	1.15
CCCCCCCCCCCC1=C(O)C(=O)C=C(O)C1=O [Embelin] + Cc1nc(NC(=O)N2CCC[C@H]2C(N)=O)sc1-c1ccnc(C(C)(C)C(F)(F)F)c1 [Alpelisib] (partner 2 µM)					1.08	1.07	1.07	1.11	0.901	0.794	0.837	0.728	0.778	0.753	0.839	0.191	0.93	1	0.914	0.732	0.983	0.935	0.978	0.893
CCCCCCCCCCCC1=C(O)C(=O)C=C(O)C1=O [Embelin] + COc1cccc2cc(-c3nc([C@H]4CC[C@H](C(=O)O)CC4)n4ncnc(N)c34)[nH]c12 [OSI-027] (partner 0.5 µM)	0.486	0.41	0.468	0.494																				
CCCCCCCCCCCC1=C(O)C(=O)C=C(O)C1=O [Embelin] + Nc1ncn([C@H]2C[C@H](O)[C@@H](CO)O2)c(=O)n1 [Decitabine] (partner 2 µM)									0.303	0.252	0.326	0.277												
CCCCCCCCCCCC1=C(O)C(=O)C=C(O)C1=O [Embelin] + CS(=O)(=O)CCNCc1ccc(-c2ccc3ncnc(Nc4ccc(OCc5cccc(F)c5)c(Cl)c4)c3c2)o1 [Lapatinib] (partner 2 µM)					0.943	0.971	0.991	0.967	0.923	1.12	1.12	1.1	0.769	0.894	0.789	0.645	0.202	0.247	0.218	0.217	1.03	1.11	1.08	1.14
CCCCCCCCCCCC1=C(O)C(=O)C=C(O)C1=O [Embelin] + CCNC(=O)c1noc(-c2cc(C(C)C)c(O)cc2O)c1-c1ccc(CN2CCOCC2)cc1 [Luminespib] (partner 0.01 µM)	0.577	0.478	0.484	0.452																				
CCCCCCCCCCCC1=C(O)C(=O)C=C(O)C1=O [Embelin] + N=C(N)NC(=N)NCCc1ccccc1 [Phenformin] (partner 250 µM)	0.601	0.612	0.62	0.602					0.204	0.167	0.185	0.0745												
CCCCCCCCCCCC1=C(O)C(=O)C=C(O)C1=O [Embelin] + Cc1nc(Nc2ncc(C(=O)Nc3c(C)cccc3Cl)s2)cc(N2CCN(CCO)CC2)n1 [Dasatinib] (partner 0.075 µM)	0.554	0.542	0.534	0.555																				
CCCCCCCCCCCC1=C(O)C(=O)C=C(O)C1=O [Embelin] + C[C@@H](Oc1cc(-c2cnn(C3CCNCC3)c2)cnc1N)c1c(Cl)ccc(F)c1Cl [Crizotinib] (partner 1 µM)					0.954	1.02	0.963	0.94	0.834	0.81	0.987	0.915	0.718	0.85	0.729	0.743	0.205	0.229	0.191	0.19	0.738	0.854	0.822	0.692
CCCCCCCCCCCC1=C(O)C(=O)C=C(O)C1=O [Embelin] + O=C(CCCCCCC(=O)Nc1ccccc1)NO [Vorinostat] (partner 1 µM)													0.963	1.03	1.2	0.937								
CCCCCCCCCCCC1=C(O)C(=O)C=C(O)C1=O [Embelin] + O=C(c1cc(Cc2n[nH]c(=O)c3ccccc23)ccc1F)N1CCN(C(=O)C2CC2)CC1 [Olaparib] (partner 8 µM)					0.987	1.01	0.994	0.987	0.32	0.187	0.424	0.366	0.899	0.894	0.847	0.616	0.699	0.828	0.703	0.684	0.589	0.682	0.573	0.655
CCCCCCCCCCCC1=C(O)C(=O)C=C(O)C1=O [Embelin] + C[C@]1(O)C[C@@H](c2nc(-c3ccc4ccc(-c5ccccc5)nc4c3)c3c(N)nccn32)C1 [Linsitinib] (partner 1 µM)					0.93	1.04	1.06	0.938	0.546	0.717	0.582	0.456	0.425	0.799	0.536	0.241	0.946	1.01	0.998	0.751	0.993	1.1	0.981	0.959
CCCCCCCCCCCC1=C(O)C(=O)C=C(O)C1=O [Embelin] + Cc1cc(Nc2cc(N3CCN(C)CC3)nc(Sc3ccc(NC(=O)C4CC4)cc3)n2)n[nH]1 [Tozasertib] (partner 0.1 µM)	0.44	0.412	0.45	0.423																				
CCCCCCCCCCCC1=C(O)C(=O)C=C(O)C1=O [Embelin] + CS(=O)(=O)N1CCN(Cc2cc3nc(-c4cccc5[nH]ncc45)nc(N4CCOCC4)c3s2)CC1 [Pictilisib] (partner 1 µM)					0.873	0.832	0.784	0.887	0.554	0.596	0.53	0.527	0.367	0.326	0.383	0.249	0.446	0.362	0.446	0.336	0.949	1.12	1.1	0.891
